Structures are written as SMILES.

The first test addresses human recombinant ATX (Homo sapiens, UniProt Q13822). Briefly: Autotaxin (ATX) activity Quanta Red assay. It counts as biochemical. The conditions noted are these: human recombinant ATX 0.8 μg/mL, 2 hours at room temperature, IC50 determined in duplicate; read-out: Activity (ATX activity, Quanta Red assay; IC50). The method, then: The reaction was stopped after 2 hours with a 20 μL addition of Quanta Red Stop solution (1:20 dilution in distilled water). The above-described mixture with DMSO alone was used as a positive control whereas that with DMSO alone without ATX was taken as a negative control.
Fluorescence was determined in a BMG Labtech Pherastar plus plate reader ([…]). Data were analysed using Excel fit software. IC50 values were determined in duplicate.
As to `COc1ccc(Cn2c(CCC(=O)N[C@@H](C)c3ccc(Cl)cc3)nc3cccnc32)cc1` [Example 84, N-[(S)-1-(4-Chloro-phenyl)-ethyl]-3-[3-(4-methoxy-benzyl)-3H-imidazo[4,5-b]pyridin-2-yl]-propionamide], the IC50 amounted to 3 nM.

Still in this test, the particulars now being: read-out: Activity (ATX activity, Quanta Red assay; IC50).
Regarding `O=C(CCc1nc2cccnc2n1Cc1ccc(F)c(F)c1)NC[C@H](O)c1ccccc1` [Example 67, 3-[3-(3,4-Difluoro-benzyl)-3H-imidazo[4,5-b]pyridin-2-yl]-N-((R)-2-hydroxy-2-phenyl-ethyl)-propionamide], the IC50 came to 169 nM.

With `C[C@H](NC(=O)CCc1nc2cccnc2n1Cc1ccc(F)cc1)c1ccccn1` [Example 68, 3-[3-(4-Fluoro-benzyl)-3H-imidazo[4,5-b]pyridin-2-yl]-N-((S)-1-pyridin-2-yl-ethyl)-propionamide], the IC50 amounted to 212 nM.

With `O=C(CCc1nc2cccnc2n1Cc1ccc(OC(F)(F)F)cc1)Nc1nccs1` [Example 69, N-Thiazol-2-yl-3-[3-(4-trifluoromethoxy-benzyl)-3H-imidazo[4,5-b]pyridin-2-yl]-propionamide], the IC50 amounted to 214 nM. On to `C[C@H](NC(=O)CCc1nc2cc(Br)cnc2n1Cc1ccc(F)cc1)c1ccc(Cl)cc1` [Example 70, 3-[6-Bromo-3-(4-fluoro-benzyl)-3H-imidazo[4,5-b]pyridin-2-yl]-N-[(S)-1-(4-chloro-propionimide)]], for which the IC50 was determined as 242 nM. As to `O=C(CCc1nc2cccnc2n1Cc1ccc(F)c(F)c1)NCC1CCCCC1` [Example 71, N-Cyclohexylmethyl-3-[3-(3,4-difluoro-benzyl)-3H-imidazo[4,5-b]pyridin-2-yl]-propionamide], the IC50 was determined as 243 nM. Same read-out and setting: for `C[C@H](NC(=O)CCc1nc2cccnc2n1Cc1ccc(F)c(F)c1)c1ccccn1` [Example 72, 3-[3-(3,4-Difluoro-benzyl)-3H-imidazo[4,5-b]pyridin-2-yl]-N-((S)-1-pyridin-2-yl-ethyl)-propionamide] the value was 247 nM.

`O=C(CCc1nc2cccnc2n1Cc1ccc(OC(F)(F)F)cc1)Nc1nncs1` [Example 73, N-[1,3,4]Thiadiazol-2-yl-3-[3-(4-trifluoromethoxy-benzyl)-3H-imidazo[4,5-b]pyridin-2-yl]-propionamide]: the IC50 was 267 nM. Still for that read-out and setting: for `COc1cc(OC(F)(F)F)ccc1CNC(=O)CCc1nc2cccnc2n1Cc1ccc(F)c(F)c1` [Example 74, 3-[3-(3,4-Difluoro-benzyl)-3H-imidazo[4,5-b]pyridin-2-yl]-N-(2-methoxy-4-trifluoromethoxy-benzyl)-propionamide] the value was 339 nM. The same measure, in the same setting: for `O=C(CCc1nc2cccnc2n1Cc1ccc(F)c(F)c1)NCc1ccccn1` [Example 75, 3-[3-(3,4-Difluoro-benzyl)-3H-imidazo[4,5-b]pyridin-2-yl]-N-pyridin-2-ylmethyl-propionamide] the value was 424 nM; for `C[C@H](NC(=O)CCc1nc2cccnc2n1Cc1ccc(OCc2ccccc2)cc1)c1ccc(Cl)cc1` [Example 76, 3-[3-(4-Benzyloxy-benzyl)-3H-imidazo[4,5-b]pyridin-2-yl]-N-[(S)-1-(4-chloro-phenyl)-ethyl]-propionamide], 500 nM; for `Cc1csc(NC(=O)CCc2nc3cccnc3n2Cc2ccc(OC(F)(F)F)cc2)n1` [Example 77, N-(4-Methyl-thiazol-2-yl)-3-[3-(4-trifluoromethoxy-benzyl)-3H-imidazo[4,5-b]pyridin-2-yl]-propionamide], 714 nM. As to `O=C(CCc1nc2cccnc2n1Cc1ccc(OC(F)(F)F)cc1)Nc1ncco1` [Example 78, N-Oxazol-2-yl-3-[3-(4-trifluoromethoxy-benzyl)-3H-imidazo[4,5-b]pyridin-2-yl]-propionamide], the IC50 came to 800 nM.

With `Cc1ccc2nc(CCC(=O)N[C@@H](C)c3ccc(Cl)cc3)n(Cc3ccc(F)cc3)c2n1` [Example 79, N-[(S)-1-(4-Chloro-phenyl)-ethyl]-3-[3-(4-fluoro-benzyl)-5-methyl-3H-imidazo[4,5-b]pyridin-2-yl]-propionamide], the IC50 stood at 94 nM. Turning to `C[C@H](NC(=O)CCc1nc2cccnc2n1Cc1ccc(OCc2ccccc2)cc1)c1ccc(F)cc1` [Example 80, 3-[3-(4-Benzyloxy-benzyl)-3H-imidazo[4,5-b]pyridin-2-yl]-N-[(S)-1-(4-fluoro-phenyl)-ethyl]-propionamide], the IC50 turned out to be 844 nM.

Regarding `Cc1cnc(NC(=O)CCc2nc3cccnc3n2Cc2ccc(OC(F)(F)F)cc2)s1` [Example 81, N-(5-Methyl-thiazol-2-yl)-3-[3-(4-trifluoromethoxy-benzyl)-3H-imidazo[4,5-b]pyridin-2-yl]-propionamide], the IC50 worked out at 1480 nM. For `O=C(CCc1nc2cccnc2n1Cc1ccc(F)c(F)c1)NCc1ccncc1` [Example 82, 3-[3-(3,4-Difluoro-benzyl)-3H-imidazo[4,5-b]pyridin-2-yl]-N-pyridin-4-ylmethyl-propionamide], the IC50 was 987 nM. `C[C@H](NC(=O)CCc1nc2cccnc2n1Cc1ccc(F)cc1)c1ccc(Br)cc1` [Example 83, N—[(S)-1-(4-bromo-phenyl)-ethyl]-3-[3-(4-fluoro-benzyl)-3H-imidazo[4,5-b]pyridin-2-yl]-propionamide]: the IC50 is 2 nM. Regarding `Cc1ccc([C@H](C)NC(=O)CCc2nc3cccnc3n2Cc2ccc(F)c(F)c2)cc1` [Example 85, 3-[3-(3,4-Difluoro-benzyl)-3H-imidazo[4,5-b]pyridin-2-yl]-N-((S)-1-p-tolyl-ethyl)-propionamide], the IC50 was 4 nM. For the molecule `C[C@H](NC(=O)CCc1nc2cccnc2n1Cc1ccc(F)c(F)c1)c1ccccc1` [Example 86, 3-[3-(3,4-Difluoro-benzyl)-3H-imidazo[4,5-b]pyridin-2-yl]-N-((S)-1-phenyl-ethyl)-propionamide], the IC50 is 5 nM. As for `C[C@H](NC(=O)CCc1nc2cccnc2n1Cc1ccc(F)cc1)c1ccccc1` [Example 87, 3-[3-(4-Fluoro-benzyl)-3H-imidazo[4,5-b]pyridin-2-yl]-N-((S)-1-phenyl-ethyl)-propionamide], the IC50 came to 6 nM. Turning to `C[C@H](NC(=O)CCc1nc2cccnc2n1Cc1ccc(F)cc1)c1ccc(F)cc1` [Example 88, 3-[3-(4-Fluoro-benzyl)-3H-imidazo[4,5-b]pyridin-2-yl]-N-[(S)-1-(4-fluoro-phenyl)-ethyl]-propionamide], the IC50 turned out to be 6 nM. With `CC[C@H](NC(=O)CCc1nc2cccnc2n1Cc1ccc(F)c(F)c1)c1ccccc1` [Example 89, 3-[3-(3,4-Difluoro-benzyl)-3H-imidazo[4,5-b]pyridin-2-yl]-N-((S)-1-phenyl-propyl)-propionamide], the IC50 turned out to be 8 nM. Consider `COc1ccc(Cn2c(CCC(=O)N[C@@H](C)c3ccc(C)cc3)nc3cccnc32)cc1` [Example 90, 3-[3-(4-Methoxy-benzyl)-3H-imidazo[4,5-b]pyridin-2-yl]-N-((S)-1-p-tolyl-ethyl)-propionamide], for which the IC50 was 9 nM.

For `COc1ccc(CNC(=O)CCc2nc3cccc(F)c3n2Cc2ccc(OC)cc2)cc1` [Example 91, 3-[7-Fluoro-1-(4-methoxy-benzyl)-1H-benzoimidazol-2-yl]-N-(4-methoxy-benzyl)-propionamide], the IC50 is 14 nM.

Take `COc1ccc(Cn2c(CCC(=O)N[C@@H](C)c3ccccc3)nc3cccnc32)cc1` [Example 92, 3-[3-(4-Methoxy-benzyl)-3H-imidazo[4,5-b]pyridin-2-yl]-N-((S)-1-phenyl-ethyl)-propionamide]: the IC50 amounted to 17 nM. `CC[C@H](NC(=O)CCc1nc2cccnc2n1Cc1ccc(OC)cc1)c1ccccc1` [Example 93, 3-[3-(4-Methoxy-benzyl)-3H-imidazo[4,5-b]pyridin-2-yl]-N-((S)-1-phenyl-propyl)-propionamide]: the IC50 is 15 nM. With `O=C(CCc1nc2cccnc2n1Cc1ccc(F)cc1)NCc1ccc(F)cc1` [Example 94, N-(4-Fluoro-benzyl)-3-[3-(4-fluoro-benzyl)-3H-imidazo[4,5-b]pyridin-2-yl]-propionamide], the IC50 was 25 nM. Consider `C[C@H](NC(=O)CCc1nc2cccnc2n1Cc1ccc(F)c(F)c1)c1ccc(F)cc1` [Example 95, 3-[3-(3,4-Difluoro-benzyl)-3H-imidazo[4,5-b]pyridin-2-yl]-N-[(S)-1-(4-fluoro-phenyl)-ethyl]-propionamide], for which the IC50 is 26 nM.

Take `COc1ccc(Cn2c(CCC(=O)N[C@@H](C)c3ccc(F)cc3)nc3cccnc32)cc1` [Example 96, N-[(S)-1-(4-Fluoro-phenyl)-ethyl]-3-[3-(4-methoxy-benzyl)-3H-imidazo[4,5-b]pyridin-2-yl]-propionamide]: the IC50 was determined as 22 nM. Same read-out and setting: with `COc1ccc(CNC(=O)CCc2nc3cccnc3n2Cc2ccc(F)cc2)cc1` [Example 97, 3-[3-(4-Fluoro-benzyl)-3H-imidazo[4,5-b]pyridin-2-yl]-N-(4-methoxy-benzyl)-propionamide] the figure was 40 nM. Still for that read-out and setting: for `COc1ccc(CNC(=O)CCc2nc3cccnc3n2Cc2cccc(OC(F)(F)F)c2)cc1` [Example 98, N-(4-Methoxy-benzyl)-3-[3-(3-trifluoromethoxy-benzyl)-3H-imidazo[4,5-b]pyridin-2-yl]-propionamide] the value was 45 nM.

As to `CCC[C@H](NC(=O)CCc1nc2cccnc2n1Cc1ccc(OC)cc1)c1ccccc1` [Example 99], the IC50 amounted to 48 nM.

Regarding `COc1ccc(CNC(=O)CCc2nc3cccnc3n2Cc2ccc(F)c(F)c2)cc1` [Example 100, 3-[3-(3,4-Difluoro-benzyl)-3H-imidazo[4,5-b]pyridin-2-yl]-N-(4-methoxy-benzyl)-propionamide], the IC50 is 50 nM. Regarding `COc1ccc(CNC(=O)CCc2nc3cc(F)cnc3n2Cc2ccccc2OC)cc1` [Example 101, 3-[6-Fluoro-3-(2-methoxy-benzyl)-3H-imidazo[4,5-b]pyridin-2-yl]-N-(4-methoxy-benzyl)-propionamide], the IC50 worked out at 55 nM.
